Values belong to the compound of their own block, whether it stands above or below them.
Columns and labels:
P388 cell line = system: P388 cell line; design: method as in PMID 11425579; conditions: cited from earlier work
A549 cell line = system: A549 cell line; design: method as in PMID 11425579; conditions: cited from earlier work
MCF7 cancer cell line = system: MCF7 cancer cell line; design: method as in PMID 28688277; conditions: cited from earlier work
CDK1 = system: CDK1; design: method as in PMID 28688277; conditions: cited from earlier work
HCT-116 cells = experiment: MTT assay, IC50 determination; format: cell-based; conditions: Homo sapiens, HCT-116, colorectal cancer cells, comparator
Experimental: HCT-116 (colon cancer cell line) was obtained from the American Type Culture Collection (ATCC). The cancer cell line was grown in Dulbecco’s Modified Eagle’s Medium (DMEM) supplemented with 10% fetal bovine serum (FBS), penicillin/streptomycin (100 U/mL and 100 μg/mL, respectively) and 2 mM L-glutamine. The cells were maintained at 37 °C in 5% CO2.
The cytotoxic activity of nortopsintin analogs (4a–4j) was determined by the national cancer institute (NCI, Bethesda, Maryland, USA) against 60 different cancer cell lines at a single concentration of (10^−5 M). For the determination of IC50 value, we used MTT assay kit (Sigma) according to the manufacturer’s protocol. HCT-116 cells were seeded into a 96-well plate at a concentration of 20,000 cells/well. After 24 h, the media was aspirated and replaced with serum-free media containing serial dilutions of the 4i compound. The cells were treated for 48 h in triplicates. […] The percentage of cytotoxicity was calculated using the following equation: % Cytotoxicity = [1 − (AVx/AVNC)] × 100.
Where, AVx denotes the average absorbance of the sample and AVNC denotes the average absorbance of the negative control. The absorbance was measured at 570 nm with reference at 690 nm.

Compound: COc1ccc2c(-c3cc(C(F)(F)F)cc(-c4cn(S(=O)(=O)c5ccc(C)cc5)c5cc(OC)ccc45)n3)cn(S(=O)(=O)c3ccc(C)cc3)c2c1 [II, bis(indolyl)-4-trifluoromethylpyridine]
IC50 (P388 cell line): 4.3 µM
IC50 (A549 cell line): 1.7 µM

Compound: COCCn1cc(-c2nc(-c3c[nH]c4ncccc34)cs2)c2cc(OC)ccc21 [III]
antitumor activity (MCF7 cancer cell line): demonstrated antitumor activity
CDK1 activity in vitro (CDK1): inhibiting CDK1 activity in vitro

IC50 (HCT-116 cells): 10.1 µM
Compound: COc1cccc2c1C(=O)c1c(O)c3c(c(O)c1C2=O)C[C@@](O)(C(=O)CO)C[C@@H]3O[C@H]1C[C@H](N)[C@H](O)[C@H](C)O1 [doxorubicin, reference compound]
